Measured values taken from ChEMBL document CHEMBL3784966, “Approaching the active conformation of 1,3-diaminopyrimidine based covalent inhibitors of Bruton's tyrosine kinase for treatment of Rheumatoid arthritis” (Bioorg Med Chem Lett, 2016).

Assays:
[1] = Cmax in Sprague-Dawley rat at 2 mg/kg, po; assay type: ADME, organism-based; design: dose 2 mg/kg, route oral; details: in vivo
[2] = Oral bioavailability in Sprague-Dawley rat at 2 mg/kg; assay type: ADME, organism-based; details: in vivo
[3] = Metabolic stability in Sprague-Dawley rat plasma assessed as remaining compound at 1 uM after 4 hrs by LC-MS/MS analysis; assay type: ADME, cell-free; details: read-out: Stability
[4] = Plasma clearance in Sprague-Dawley rat at 2 mg/kg, iv; assay type: ADME, organism-based
[5] = Metabolic stability in Beagle dog plasma assessed as remaining compound at 1 uM after 4 hrs by LC-MS/MS analysis; assay type: ADME, cell-free, Canis lupus familiaris; details: read-out: Stability
[6] = biological target: Tyrosine-protein kinase BTK (Homo sapiens, UniProt Q06187); assay: Inhibition of BTK (unknown origin)
Chain of Tyrosine-protein kinase BTK (Q06187 whole entry): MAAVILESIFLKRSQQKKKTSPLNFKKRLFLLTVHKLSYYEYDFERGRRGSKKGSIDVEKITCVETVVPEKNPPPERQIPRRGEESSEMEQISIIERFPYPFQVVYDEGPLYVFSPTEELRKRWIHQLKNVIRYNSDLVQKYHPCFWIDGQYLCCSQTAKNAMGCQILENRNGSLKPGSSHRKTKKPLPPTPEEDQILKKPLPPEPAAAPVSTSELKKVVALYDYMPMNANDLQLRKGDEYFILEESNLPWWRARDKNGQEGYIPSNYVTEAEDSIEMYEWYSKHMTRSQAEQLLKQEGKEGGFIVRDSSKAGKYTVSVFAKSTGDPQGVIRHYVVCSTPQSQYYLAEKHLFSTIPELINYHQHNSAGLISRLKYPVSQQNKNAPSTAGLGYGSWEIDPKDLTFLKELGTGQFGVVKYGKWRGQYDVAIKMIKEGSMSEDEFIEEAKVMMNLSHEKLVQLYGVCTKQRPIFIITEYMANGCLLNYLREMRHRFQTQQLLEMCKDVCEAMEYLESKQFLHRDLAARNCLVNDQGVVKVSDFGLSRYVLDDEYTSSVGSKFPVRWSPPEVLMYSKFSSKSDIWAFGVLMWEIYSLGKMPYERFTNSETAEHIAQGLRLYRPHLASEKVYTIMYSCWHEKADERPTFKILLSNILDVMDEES

[7] = Antiproliferative activity against B cells (unknown origin); assay type: functional, cell-based; details: B-cell
[8] = AUC(0 to t) in Sprague-Dawley rat at 2 mg/kg, po; assay type: ADME, organism-based; details: in vivo
[9] = Metabolic stability in human plasma assessed as remaining compound at 1 uM after 4 hrs by LC-MS/MS analysis; assay type: ADME, cell-free; details: read-out: Stability
[10] = Half life in Sprague-Dawley rat at 2 mg/kg, po; assay type: ADME, organism-based; details: in vivo

Row | SMILES | IC50 [6] | IC50 [7] | also measured
1 | C=CC(=O)Nc1cccc(-n2c(=O)n(C)c3cnc(Nc4ccc(OCCOC)cc4)nc32)c1 | 4.11 nM | 6.84 nM | Cmax [1]: 41 ng/mL; bioavailability [2]: 20%; remaining at 4 h, 1 µM [3]: 27.5%; clearance [4]: 253 mL/min/kg; remaining at 4 h, 1 µM [5]: 16.2%; AUC(0-t) [8]: 27 ng·h/mL; remaining at 4 h, 1 µM [9]: 42.2%; half-life [10]: 1.4 h
2 | C=CC(=O)Nc1cccc(Nc2nc(Nc3ccc(Oc4ccnc(C(=O)NC)c4)cc3)ncc2[S+](C)[O-])c1 (racemic) | 5.65 nM | 19.4 nM | 
3 | C=CC(=O)Nc1cccc(Nc2nc(Nc3ccc(N(C)C)nc3)ncc2[S+](C)[O-])c1 (racemic) | 1.48 nM | 14.9 nM | 
4 | C=CC(=O)Nc1cccc(Nc2nc(Nc3ccc(OCCOC)cc3)ncc2[S+](C)[O-])c1 (racemic) | 3.76 nM | 5.85 nM | Cmax [1]: 55 ng/mL; bioavailability [2]: 23%; remaining at 4 h, 1 µM [3]: 90.7%; clearance [4]: 108 mL/min/kg; remaining at 4 h, 1 µM [5]: 94.3%; AUC(0-t) [8]: 73 ng·h/mL; remaining at 4 h, 1 µM [9]: 86.7%; half-life [10]: 1.3 h
5 | C=CC(=O)Nc1cccc(-n2c(=O)n(C3CCOCC3)c3cnc(Nc4ccc(OC)nc4)nc32)c1 | 318 nM |  | 
6 | C=CC(=O)Nc1cccc(-n2c(=O)n(CCOC)c3cnc(Nc4ccc(OC)nc4)nc32)c1 | 265 nM |  | 
7 | C=CC(=O)Nc1cccc(Nc2nc(Nc3ccc(N4CCOCC4)cc3)ncc2SC)c1 | 1.08 nM | 64 nM | 
8 | C=CC(=O)Nc1cccc(Nc2nc(Nc3ccc(OCCOC)cc3)ncc2F)c1 [SPEBRUTINIB] |  | 3.28 nM | 
9 | C=CC(=O)Nc1cccc(-n2c(=O)n(CC3CC3)c3cnc(Nc4ccc(OC)nc4)nc32)c1 | 222 nM |  | 
10 | C=CC(=O)Nc1cccc(-n2c(=O)n(CC3CC3)c3cnc(Nc4ccc(N(C)C)nc4)nc32)c1 | 30.6 nM | 818 nM | 
11 | C=CC(=O)Nc1cccc(Nc2nc(Nc3ccc(OCCOC)cc3)ncc2S(C)(=O)=O)c1 | 31.2 nM |  | 
12 | C=CC(=O)Nc1cccc(Nc2nc(Nc3ccc(OCCOC)cc3)ncc2SC)c1 | 6.6 nM | 30.6 nM | 
13 | C=CC(=O)Nc1cccc(-n2c(=O)n(C)c3cnc(Nc4ccc(Oc5ccnc(C(=O)NC)c5)cc4)nc32)c1 | 13 nM | 13.7 nM | Cmax [1]: 107 ng/mL; bioavailability [2]: 9%; clearance [4]: 30 mL/min/kg; AUC(0-t) [8]: 100 ng·h/mL; half-life [10]: 2.4 h
14 | C=CC(=O)Nc1cccc(-n2c(=O)n(CC3CC3)c3cnc(Nc4ccc(N5CCOCC5)cc4)nc32)c1 | 31 nM | 70.6 nM | remaining at 4 h, 1 µM [3]: 80.5%; remaining at 4 h, 1 µM [5]: 93.4%; remaining at 4 h, 1 µM [9]: 40.8%
15 | C=CC(=O)Nc1cccc(Nc2nc(Nc3ccc(N4CCOCC4)cc3)ncc2[S+](C)[O-])c1 (racemic) | 0.903 nM | 3.55 nM | 
